In US11583525B2, “Geranylgeranyltransferase I inhibitor for treatment of a PTEN defective cancer” (H. LEE MOFFITT CANCER CENTER AND RESEARCH INSTITUTE, INC., priority 2017, dated 2023):
“Also recorded” adds a separate entry of the source.

Tested on: A549 cells
Test: A549 cell xenografts in NOD/SCID gamma mice, GGTi-2418 alone or in combination with PDT
Format: in vivo
Details: 50 mg kg-1 intratumoural injection
From the text: FIGS. 4A, 4B, 4C, and 4D show both a non-degradable IP3R3 mutant and GGTi-2418 sensitize tumours to PDT. […] Implanted xenotransplanted mice, chosen randomly, were subjected to two rounds of PDT (see arrows) or left untreated (UT); n=4-6 mice per group. Left panel, tumour growth kinetics at the indicated time points. Middle panel, representative tumours imaged with IRDye 2-DG at the end of the experiment. Top right panel, representative excised tumours imaged 60 days post-injection. Bottom right panel, quantification of tumour weights. P values for the tumour volume and weight at day 60 were calculated by one-way ANOVA and multiple-comparisons test. Error bars indicate s.e.m. […] Middle panel, quantification of apoptosis. […] AFU, arbitrary fluorescence units. P values were calculated by one-way ANOVA and multiple-comparisons test. […] Bottom right panel, quantification of tumour weights. P values for the tumour volume and weight at day 60 were calculated by one-way ANOVA and multiple-comparisons test. […] Middle panel, quantification of apoptosis. […] P values were calculated by one-way ANOVA and multiple-comparisons test. […]
Experimental animals. […] Tumour growth was monitored daily, and tumour diameters were measured with callipers every other day. The tumour volume was calculated using the following equation: volume=π/6 ×(a×b2), where a is the major diameter and b is the minor diameter. […]

Question: How did the “growth rate of xenografts” value (GGTi-2418 by itself, two rounds of five consecutive days) turn out when Cc1nc[nH]c1CN1CCN(C(=O)N[C@@H](CC(C)C)C(=O)O)[C@@H](Cc2ccccc2)C1=O [GGTi-2418] was run?
Answer: The value was “only modestly affected the growth rate of xenografts”.

Question: What about the “sensitization of tumour xenografts to PDT (tumour growth, weight, apoptosis)” value (GGTi-2418 in combination with PDT) of the same molecule?
Answer: Its value is “sensitizes xenotransplanted tumours to photodynamic therapy; also recorded: significantly sensitized tumour xenografts to PDT”.
